# Columns and labels:
# U937 cells = experiment: 3H-thymidine incorporation (mitogenic effect) in U937 cells; format: cell-based, human; details: for Thymidine incorporation of the U937 cells: U937 human monocyte-like histiocytic lymphoma, result in words, relative to control or to Z-Ala-TRIS-Tripalmitate
# Description: (§1) ^3H-thymidine incorporation experiments were carried out in Linbro-Titertek microtitre plates (Flow Laboratories, Inc., U.S.A.) following the method of L. Bradley in "Selected Methods of Cellular Immunology (1980) Eds. B.B. Mishell and S.M. Shiigi; Publisher. W.H. Freeman and Co., U.S.A. pp156. The tests were carried out externally by Dr. D. Rathjen of Peptide Technology Ltd. Dee Why, N.S.W.
# (§2) Cell lines tested were:- • 1. RD10; a B-cell lymphoma (obtained from the Centre for Immunology, Sydney University, Sydney, NSW. • 2. U937; a human monocyte-like3 histiocytic lymphoma (source: American Tissue Culture Collection).
# (§3) RD10 cells (at a cell density 5x10^s/ml, 100 ul/well) were cultured for 20 hours at 37°C with 5% C02 in RPMI 1640 medium, supplemented with 10% Fetal Calf. Serum. Samples to be tested were mixed and sonicated with this medium at a concentration of 5000, 500, 50 and 5 ug/ml and 100 ul aliquots added to the cells. The cells were pulsed with 0.5 uCi/well of ^3H-thymidine and the plates incubated for four more hours before harvesting (Titertek Skatron harvester, Lier, Norway). Incorporated radioactivity was measured by liquid scintillation counting. All assays were performed in triplicate.
# RD10 cells = experiment: 3H-thymidine incorporation (mitogenic effect) in RD10 cells; format: cell-based; details: RD10 B-cell lymphoma
# Description: as §1, §2, §3
# trypsin = biological target: T1, trypsin (Bos taurus, UniProt P00760); experiment: Protease treatment: digestion with trypsin, followed by HPLC; format: biochemical; details: TPCK trypsin, enzyme/substrate ratio 1:50, 0.2 M ammonium hydrogen carbonate, 37°C; product Z-Leu-Arg-OH
# T1 sequence (P00760 24-246): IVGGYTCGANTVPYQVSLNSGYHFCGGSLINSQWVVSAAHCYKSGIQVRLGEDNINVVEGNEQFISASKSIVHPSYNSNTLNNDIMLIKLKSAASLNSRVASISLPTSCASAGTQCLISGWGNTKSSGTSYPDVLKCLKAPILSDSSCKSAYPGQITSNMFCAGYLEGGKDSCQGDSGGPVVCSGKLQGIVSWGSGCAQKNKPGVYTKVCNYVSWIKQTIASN
# Description: Z-Gly-TRIS and Z-Ala-TRIS were incubated with papain, and Z-Leu-Arg-TRIS with trypsin, to test that the action of proteolytic enzymes could regenerate the starting compounds Z-Gly-OH, Z-Ala-OH and Z-Leu-Arg-OH respectively.
# • a) Papain. Z-Ala-TRIS in 50 mmolar phosphate buffer pH 6.5 (650 ul) , 20 mM ethylene-diamine-tetraacetic acid (100 ul) and water to 1 ml. Activated papain (5mg/ml) was added to a final enzyme/substrate ratio of 1:50. The reaction was followed by HPLC on C18 reverse phase columns and the hydrolysis product identified by co-chromatography with standards. Blanks were incubated as above using water instead of enzyme solution. • b) Trypsin. Z-Leu-Arg-TRIS was incubated at a concentration between 2 and 10 mg/ml in 0.2 M ammonium hydrogen carbonate. Freshly prepared TPCK trypsin (1 mg/ml in water) was added to the solution giving a final enzyme/substrate ratio of 1:50. Samples were incubated at 37°C and aliquots examined by reverse phase HPLC. Additional amounts of enzyme were added as required.
structure (smiles),measurement,setting,value
"CCCCCCCCCCCCCCCC(=O)OCC(COC(=O)CCCCCCCCCCCCCCC)(COC(=O)CCCCCCCCCCCCCCC)NC(=O)C(C)N (stereo not drawn) [Ala-TRIS-Tripalmitate, Ala-TRIS-TRIPALMITATE]",Thymidine incorporation of the U937 cells,U937 cells,slightly diminished responses
same,"^3H-thymidine uptake by RD10 cells, response compared with Z-Ala-TRIS-Tripalmitate",RD10 cells; result in words,slightly diminished response
"CCCCCCCCCCCCCCCC(=O)OCC(COC(=O)CCCCCCCCCCCCCCC)(COC(=O)CCCCCCCCCCCCCCC)NC(=O)C(C)NC(=O)OCc1ccccc1 (stereo not drawn) [Z-Ala-TRIS-Tripalmitate, Z-Ala-TRIS-TRIPALMITATE]",Thymidine incorporation of the U937 cells,U937 cells,close to control
same,cytotoxic effects in U937 cells,"U937 cells; at higher concentrations, from thymidine incorporation",slight cytotoxic effects
same,"^3H-thymidine uptake by RD10 cells, increase in cell proliferation compared to control","RD10 cells; samples at 5000, 500, 50 and 5 ug/ml, 20 hours culture, 4 hours pulse, triplicate",3.4 fold
CC(C)C[C@H](NC(=O)OCc1ccccc1)C(=O)N[C@@H](CCCNC(=N)N)C(=O)NC(CO)(CO)CO [Z-Leu-Arg-TRIS],hydrolysis with trypsin,trypsin,slowly
